From patent publication US4120955A, “Method for production of kanamycin C and its derivatives” (Zaidan Hojin Biseibutsu Kagaku Kenkyu Kai, priority 1976, dated 1978)
Converted amounts (≈) assume the structure as drawn. “Also recorded” adds a separate entry of the source. Read-outs that look alike come from different tables or passages of the source.

Tests used:
[1] = test system: aminoglycoside 6'-acetyltransferases; assay: Inactivation by aminoglycoside 6'-acetyltransferases; assay type: biochemical
bacterial strains = assay: Antibacterial activity in general (summary of Table 1); assay type: cell-based; details: for antibacterial activity compared with 3'-deoxykanamycin B and 3',4'-dideoxykanamycin B: against some bacteria strains
Method: (§1) The minimum inhibitory concentrations (mcg/ml) of kanamycin C, 3'-deoxykanamycin C and 3',4'-dideoxykanamycin C against various microorganisms were determened according to serial dilution method using nutrient agar medium at 37° C., the estimation being effected after 18 hours incubation.

[2] = test system: aminoglycoside 3'-phosphotransferases; assay: Inactivation by aminoglycoside 3'-phosphotransferases; assay type: biochemical
[3] = test system: Escherichia coli K-12 ML 1410 R81; assay: Minimum inhibitory concentration, serial dilution method; assay type: cell-based; details: 18 h, read-out: Minimum Inhibitory Concentration
Method: as §1

[4] = test system: Escherichia coli JR 66/W677; assay: as above; assay type: cell-based
Method: as §1

[5] = test system: Escherichia coli LA 290 R56; assay: as above; assay type: cell-based; details: LA290R56, 18 h, read-out: Minimum Inhibitory Concentration
Method: as §1

[6] = test system: Escherichia coli K-12 ML 1630; assay: as above; assay type: cell-based; details: K12ML1630, nutrient agar, 37° C., 18 hours, E. coli K-12 ML 1630
Method: as §1

[7] = test system: Staphylococcus aureus FDA 209P; assay: as above; assay type: cell-based; details: FDA209P, read-out: Minimum Inhibitory Concentration
Method: as §1

[8] = test system: Escherichia coli LA 290 R55; assay: as above; assay type: cell-based; details: LA290R55, 18 h, read-out: Minimum Inhibitory Concentration
Method: as §1

[9] = test system: Pseudomonas aeruginosa No. 12; assay: as above; assay type: cell-based
Method: as §1

[10] = test system: Mycobacterium smegmatis ATCC 607; assay: as above; assay type: cell-based; details: Mycolicibacterium smegmatis, read-out: Minimum Inhibitory Concentration
Method: as §1

[11] = test system: Pseudomonas aeruginosa H 11; assay: as above; assay type: cell-based
Method: as §1

Escherichia coli W 677 = assay: as above; assay type: cell-based
Method: as §1

[12] = test system: Pseudomonas aeruginosa TI-13; assay: as above; assay type: cell-based
Method: as §1

[13] = test system: Escherichia coli K-12 ML 1629; assay: as above; assay type: cell-based
Method: as §1

Escherichia coli NIHJ = assay: as above; assay type: cell-based; details: read-out: Minimum Inhibitory Concentration
Method: as §1

Escherichia coli K-12 R5 = assay: as above; assay type: cell-based; details: K12R5, 18 h, read-out: Minimum Inhibitory Concentration
Method: as §1

[14] = test system: Klebsiella pneumoniae PCI 602; assay: as above; assay type: cell-based
Method: as §1

[15] = test system: Klebsiella pneumoniae 22 No. 3038; assay: as above; assay type: cell-based
Method: as §1

99 = assay: as above; assay type: cell-based; details: 18 h, read-out: Minimum Inhibitory Concentration
Method: as §1

[16] = test system: Pseudomonas aeruginosa A3; assay: as above; assay type: cell-based; details: nutrient agar, 37° C., 18 hours, P. aeruginosa A3
Method: as §1

Escherichia coli K-12 = assay: as above; assay type: cell-based
Method: as §1

[17] = test system: Escherichia coli LA 290 R64; assay: as above; assay type: cell-based; details: LA290R64, 18 h, read-out: Minimum Inhibitory Concentration
Method: as §1

[18] = test system: Escherichia coli K-12 ML 1410; assay: as above; assay type: cell-based; details: K12ML1410, nutrient agar, 37° C., 18 hours, E. coli K-12 ML 1410
Method: as §1

[19] = test system: Pseudomonas aeruginosa GN 315; assay: as above; assay type: cell-based
Method: as §1

[20] = mouse, in vivo
in vivo = details: mouse, iv
[21] = test system: resistant strains which produce 6'-acetyltransferases, for example Pseudomonas aeruginosa GN315; assay: Activity against resistant strains producing 6'-acetyltransferases; assay type: cell-based; details: compared with kanamycin B derivatives
[22] = test system: aminoglycoside 6'-acetyltransferases; details: known kanamycins; cited from earlier work
[23] = test system: resistant strains which produce 6'-acetyltransferases, for example Pseudomonas aeruginosa GN315; details: known deoxykanamycin B derivatives; cited from earlier work
[24] = JR66/W677, 18 h, read-out: Minimum Inhibitory Concentration
[25] = NO.12, 18 h, read-out: Minimum Inhibitory Concentration
[26] = ATCC607, nutrient agar, 37° C., 18 hours, M. smegmatis ATCC 607
[27] = W677, 18 h, read-out: Minimum Inhibitory Concentration
[28] = TI13, 18 h, read-out: Minimum Inhibitory Concentration
[29] = K12ML1629, 18 h, read-out: Minimum Inhibitory Concentration
[30] = PCI602, 18 h, read-out: Minimum Inhibitory Concentration
[31] = 22NO.3038, 18 h, read-out: Minimum Inhibitory Concentration
[32] = K12, 18 h, read-out: Minimum Inhibitory Concentration
[33] = GN315, nutrient agar, 37° C., 18 hours, P. aeruginosa GN 315, read-out: Minimum Inhibitory Concentration

SMILES | inactivation by 6'-acetyltransferases [1] | growth inhibition of bacterial strains (bacterial strains) | antibacterial activity compared with 3'-deoxykanamycin B and 3',4'-dideoxykanamycin B (bacterial strains) | inactivation by 3'-phosphotransferases [2] | MIC [3] | MIC [4, 24] | MIC [5] | MIC [6] | MIC ([7]; 18 h) | MIC [8] | MIC [9, 25] | MIC [10, 26] | MIC (Escherichia coli W 677; [27]) | MIC [12, 28] | MIC [13, 29] | MIC (Escherichia coli NIHJ; 18 h) | MIC 99 | MIC [16] | MIC [17] | MIC [18] | other results
NC1CCC(CO)OC1OC1C(N)CC(N)C(OC2OC(CO)C(O)C(N)C2O)C1O (stereo not shown) [3',4'-Dideoxykanamycin C, 3',4'-dideoxykanamycin C] | not inactivated | inhibits the growth of many kinds of bacterial strains | inferior | not inactivated | 50 µg/mL (≈ 110 µM) | > 100 µg/mL | 100 µg/mL (≈ 221 µM) | 12.5 µg/mL (≈ 27.6 µM) | 6.25 µg/mL (≈ 13.8 µM) | > 100 µg/mL | 100 µg/mL (≈ 221 µM) | 50 µg/mL (≈ 110 µM) | 6.25 µg/mL (≈ 13.8 µM) | 100 µg/mL (≈ 221 µM) | 12.5 µg/mL (≈ 27.6 µM) | 12.5 µg/mL (≈ 27.6 µM) | > 100 µg/mL | 100 µg/mL (≈ 221 µM) | 100 µg/mL (≈ 221 µM) | 12.5 µg/mL (≈ 27.6 µM) | MIC ([11]; H11, 18 h, read-out: Minimum Inhibitory Concentration): 100 µg/mL (≈ 221 µM); MIC (Escherichia coli K-12 R5): 12.5 µg/mL (≈ 27.6 µM); MIC [14, 30]: 25 µg/mL (≈ 55.2 µM); MIC [15, 31]: > 100 µg/mL; MIC (Escherichia coli K-12; [32]): 25 µg/mL (≈ 55.2 µM); MIC ([19]; GN315, 18 h, read-out: Minimum Inhibitory Concentration): 100 µg/mL (≈ 221 µM); acute toxicity compared with deoxy derivatives of kanamycin B [20]: remarkably lower toxicity; LD50 (in vivo): > 300 mg/kg
NC1CC(O)C(CO)OC1OC1C(N)CC(N)C(OC2OC(CO)C(O)C(N)C2O)C1O (stereo not shown) [3'-Deoxykanamycin C, 3'-deoxykanamycin C] | not inactivated | inhibits the growth of many kinds of bacterial strains | inferior | not inactivated | 50 µg/mL (≈ 107 µM) | > 100 µg/mL | 100 µg/mL (≈ 213 µM) | 12.5 µg/mL (≈ 26.7 µM) | 3.13 µg/mL (≈ 6.68 µM) | > 100 µg/mL | 100 µg/mL (≈ 213 µM) |  | 6.25 µg/mL (≈ 13.3 µM) |  | 12.5 µg/mL (≈ 26.7 µM) | 12.5 µg/mL (≈ 26.7 µM) | 100 µg/mL (≈ 213 µM) | 12.5 µg/mL (≈ 26.7 µM) | 50 µg/mL (≈ 107 µM) | 12.5 µg/mL (≈ 26.7 µM) | activity against resistant strains which produce 6'-acetyltransferases [21]: more active than kanamycin B derivatives; MIC ([10]; ATCC607, 18 h): 25 µg/mL (≈ 53.4 µM); MIC ([11]; H11, nutrient agar, 37° C., 18 hours, P. aeruginosa H 11, read-out: Minimum Inhibitory Concentration): 50 µg/mL (≈ 107 µM); MIC ([12]; TI13, nutrient agar, 37° C., 18 hours, P. aeruginosa TI-13, read-out: Minimum Inhibitory Concentration): 50 µg/mL (≈ 107 µM); MIC (Escherichia coli K-12 R5): 12.5 µg/mL (≈ 26.7 µM); MIC [14, 30]: 6.25 µg/mL (≈ 13.3 µM); MIC [15, 31]: > 100 µg/mL; MIC (Escherichia coli K-12; [32]): 12.5 µg/mL (≈ 26.7 µM); MIC [19, 33]: 50 µg/mL (≈ 107 µM); acute toxicity compared with deoxy derivatives of kanamycin B [20]: remarkably lower toxicity; LD50 (in vivo): > 300 mg/kg
NCC1CCC(N)C(OC2C(N)CC(N)C(OC3OC(CO)C(O)C(N)C3O)C2O)O1 (stereo not shown) [DKB, 3',4'-dideoxykanamycin B, reference compound] |  |  |  |  | 1.56 µg/mL (≈ 3.45 µM) |  | 12.5 µg/mL (≈ 27.7 µM) | 0.78 µg/mL (≈ 1.73 µM) |  | 50 µg/mL (≈ 111 µM) |  | 0.39 µg/mL (≈ 0.864 µM) |  | 1.56 µg/mL (≈ 3.45 µM) |  |  | 3.13 µg/mL (≈ 6.93 µM) | 1.56 µg/mL (≈ 3.45 µM) | 6.25 µg/mL (≈ 13.8 µM) | 1.56 µg/mL (≈ 3.45 µM) | inactivation (acetylation of the 6'-amino group) by 6'-acetyltransferases [22]: can be inactivated; also recorded: acetylate the 6'-amino group; MIC ([4]; JR66/W677, nutrient agar, 37° C., 18 hours, E. coli JR 66/W677, read-out: Minimum Inhibitory Concentration): 50 µg/mL (≈ 111 µM); MIC ([7]; nutrient agar, 37° C., 18 hours, S. aureus FDA 209P): < 0.2 µg/mL; MIC ([9]; nutrient agar, 37° C., 18 hours, P. aeruginosa No. 12, read-out: Minimum Inhibitory Concentration): 0.78 µg/mL (≈ 1.73 µM); MIC (Escherichia coli W 677; W677, nutrient agar, 37° C., 18 hours, E. coli W 677, read-out: Minimum Inhibitory Concentration): 0.2 µg/mL (≈ 0.443 µM); MIC ([13]; K12ML1629, nutrient agar, 37° C., 18 hours, E. coli K-12 ML 1629, read-out: Minimum Inhibitory Concentration): 0.78 µg/mL (≈ 1.73 µM); MIC (Escherichia coli NIHJ; nutrient agar, 37° C., 18 hours, E. coli NIHJ): 0.39 µg/mL (≈ 0.864 µM); MIC ([14]; PCI602, nutrient agar, 37° C., 18 hours, K. pneumoniae PCI 602, read-out: Minimum Inhibitory Concentration): 0.39 µg/mL (≈ 0.864 µM); MIC ([15]; nutrient agar, 37° C., 18 hours, K. pneumoniae 22 No. 3038, read-out: Minimum Inhibitory Concentration): 100 µg/mL (≈ 221 µM); MIC (Escherichia coli K-12; K12, nutrient agar, 37° C., 18 hours, E. coli K-12, read-out: Minimum Inhibitory Concentration): 0.78 µg/mL (≈ 1.73 µM); MIC [19, 33]: > 100 µg/mL; growth inhibition of resistant bacteria producing 6'-acetyltransferases [23]: not able to inhibit the growth
